Assay results published in PubChem BioAssay (NCI).
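The compound was tested at five concentrations on cells cultured in 96-well plates, with a 48-hour exposure period. Definition used: TGI = concentration required for complete inhibition of growth.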 Where a SMILES comes first, the peptide text is derived from it. [ ]: non-standard residue; d: D form. The star is where a group is joined. NMeF = CN[CH](Cc1ccccc1)C(=O)O; NMeV = CN[CH](C(=O)O)C(C)C; Boc = CC(C)(C)OC(=O)*

How the values were obtained:
Test in all cases: NCI tumour cell line growth inhibition, 48 h
SN12C renal = test system: SN12C renal
XF 498 CNS = test system: XF 498 CNS
M19-MEL melanoma = test system: M19-MEL melanoma
NCI-H460 lung = test system: NCI-H460 lung
SF-295 CNS = test system: SF-295 CNS
HCC-2998 colon = test system: HCC-2998 colon
UACC-257 melanoma = test system: UACC-257 melanoma
MALME-3M melanoma = test system: MALME-3M melanoma
SF-539 CNS = test system: SF-539 CNS
KM12 colon = test system: KM12 colon
SNB-19 CNS = test system: SNB-19 CNS
RPMI-8226 leukemia = test system: RPMI-8226 leukemia
CCRF-CEM leukemia = test system: CCRF-CEM leukemia
SR leukemia = test system: SR leukemia
HCT-15 colon = test system: HCT-15 colon
ACHN renal = test system: ACHN renal
LOX IMVI melanoma = test system: LOX IMVI melanoma
OVCAR-3 ovarian = test system: OVCAR-3 ovarian
DMS 273 small cell lung = test system: DMS 273 small cell lung
DMS 114 small cell lung = test system: DMS 114 small cell lung
MOLT-4 leukemia = test system: MOLT-4 leukemia
NCI-H226 lung = test system: NCI-H226 lung
OVCAR-8 ovarian = test system: OVCAR-8 ovarian
A549 NSCLC = test system: A549 NSCLC
RXF 393 renal = test system: RXF 393 renal
HOP-62 NSCLC = test system: HOP-62 NSCLC
COLO 205 colon = test system: COLO 205 colon
K-562 leukemia = test system: K-562 leukemia
SF-268 CNS = test system: SF-268 CNS
EKVX NSCLC = test system: EKVX NSCLC
SK-MEL-28 melanoma = test system: SK-MEL-28 melanoma
UO-31 renal = test system: UO-31 renal
HL-60(TB) leukemia = test system: HL-60(TB) leukemia
HCT-116 colon = test system: HCT-116 colon
M14 melanoma = test system: M14 melanoma
IGROV1 ovarian = test system: IGROV1 ovarian
SW-620 colon = test system: SW-620 colon
TK-10 renal = test system: TK-10 renal
NCI-H23 lung = test system: NCI-H23 lung
U251 CNS = test system: U251 CNS
HT29 colon = test system: HT29 colon
786-0 renal = test system: 786-0 renal
SK-MEL-5 melanoma = test system: SK-MEL-5 melanoma
UACC-62 melanoma = test system: UACC-62 melanoma
NCI-H522 lung = test system: NCI-H522 lung
LXFL 529 NSCLC = test system: LXFL 529 NSCLC
KM20L2 colon = test system: KM20L2 colon
HOP-18 NSCLC = test system: HOP-18 NSCLC
SK-OV-3 ovarian = test system: SK-OV-3 ovarian
SNB-75 CNS = test system: SNB-75 CNS
DLD-1 colon = test system: DLD-1 colon
SNB-78 CNS = test system: SNB-78 CNS
SK-MEL-2 melanoma = test system: SK-MEL-2 melanoma
OVCAR-5 ovarian = test system: OVCAR-5 ovarian
HOP-92 NSCLC = test system: HOP-92 NSCLC
CAKI-1 renal = test system: CAKI-1 renal
OVCAR-4 ovarian = test system: OVCAR-4 ovarian
A498 renal = test system: A498 renal

Measured: TGI

CC(C)C(NC(=O)OC(C)(C)C)C(=O)N(C)C(Cc1ccccc1)C(=O)N(C)C(C(=O)N(C)C(C(=O)O)C(C)C)C(C)C (stereo not given) (Boc-V[NMeF][NMeV][NMeV]-OH; configuration not given here)
not listed: HOP-18 NSCLC | SK-OV-3 ovarian | SNB-75 CNS | DLD-1 colon | SNB-78 CNS | SK-MEL-2 melanoma | OVCAR-5 ovarian | HOP-92 NSCLC | CAKI-1 renal | OVCAR-4 ovarian | A498 renal
> 100 µM: all other assays above

N#CC(C#N)=c1ccc(=C2N3CCCC3CN2C23CC4CC(CC(C4)C2)C3)cc1 (stereo not given)
78.8 µM: SNB-75 CNS
not listed: XF 498 CNS | CAKI-1 renal | OVCAR-4 ovarian | A498 renal
> 100 µM: all other assays above

O=c1nc2n(c3nsnc13)CCO2
not listed: SF-295 CNS | HOP-18 NSCLC | SNB-78 CNS | OVCAR-4 ovarian | A498 renal
> 100 µM: all other assays above

O=C1C=C(Nc2ccccc2C(=O)c2ccccc2)c2ccccc2C1=O
55.9 µM: NCI-H522 lung
33.2 µM: M19-MEL melanoma
27.9 µM: UACC-257 melanoma
not listed: XF 498 CNS | CCRF-CEM leukemia | LOX IMVI melanoma | MOLT-4 leukemia | K-562 leukemia | HL-60(TB) leukemia | TK-10 renal | SK-MEL-5 melanoma
> 100 µM: all other assays above

CC12CCC3(C1)[C@H](CC2=O)C[C@@H](OC(=O)c1ccccc1)C1C(C)(CO)CCC[C@@]13C (stereo not given in full)
58.3 µM: HOP-92 NSCLC
1.71 µM: SK-MEL-5 melanoma
12 µM: RPMI-8226 leukemia
> 45.8 µM: NCI-H460 lung
19.5 µM: DMS 114 small cell lung
> 38.9 µM: SF-295 CNS
95.7 µM: OVCAR-5 ovarian
61.7 µM: UO-31 renal
> 54.1 µM: CCRF-CEM leukemia
23.8 µM: UACC-257 melanoma
> 90.8 µM: SK-MEL-2 melanoma
19.7 µM: MOLT-4 leukemia
> 89 µM: UACC-62 melanoma
> 72.1 µM: OVCAR-4 ovarian
> 27.2 µM: CAKI-1 renal
17.9 µM: NCI-H522 lung
8.38 µM: HL-60(TB) leukemia
65.9 µM: NCI-H226 lung
47.6 µM: RXF 393 renal
27.1 µM: COLO 205 colon
> 89.1 µM: SK-OV-3 ovarian
97 µM: A549 NSCLC
> 52.3 µM: OVCAR-3 ovarian
13.3 µM: DMS 273 small cell lung
not listed: XF 498 CNS | SR leukemia
> 100 µM: all other assays above
